Data reported in patent US20230146507A1, “N-PHENYL-3-MERCAPTOPROPANAMIDE DERIVATIVES AS METALLO-BETA-LACTAMASE INHIBITORS FOR THE TREATMENT OF BACTERIAL INFECTIONS” (Helmholtz-Zentrum Für Infektionsforschung GmbH, priority 2020, published 2023).

Assays:
Assay type in all cases: biochemical
Settings in all cases: Means and SD of at least two independent experiments
[1] = molecular target: T1, VIM-1 (Pseudomonas aeruginosa, UniProt A0A0F7KYQ8); experiment: In vitro inhibition assay (kinetic fluorescence-based activity assay), VIM-1
T1 construct: made in house
Description: (§1) Protein expression and purification. The expression of IMP-7, VIM-1, and NDM-1 was performed according to the protocol previously published by Klingler et al. (Klingler, F. M.; Wichelhaus, T. A.; Frank, D.; Cuesta-Bernal, J.; El-Delik, J.; Müller, H. F.; Sjuts, H.; Gottig, S.; Koenigs, A.; Pos, K. M.; et al. Approved Drugs Containing Thiols as Inhibitors of Metallo-β-Lactamases: Strategy to Combat Multidrug-Resistant Bacteria. J. Med. Chem. 2015, 58 (8), 3626-3630. https://doi.org/10.1021/jm501844d) with slight modifications.
(§2) In vitro inhibition assay. Activity assays for NDM-1, VIM-1, VIM-2 and IMP-7 were carried out, as described by Klingler et al. Final protein concentrations were 0.5 nM (NDM-1), 4.0 nM (VIM-1), and 0.1 nM (IMP-7) in a 50 mM HEPES buffer (pH 7.5, 0.01% Triton X-100) Substrate (Fluorocillin™ (Invitrogen, Darmstadt, Germany) was dissolved in assay buffer to a final concentration of 888 nM. Test compounds were dissolved and pre-diluted in DMSO (final concentration: 1%). In a black polystyrol 96-well plate (Corning) an amount of […] of the respective inhibitor solution at different concentrations was incubated with […] of respective protein containing buffer for 30 minutes at room temperature. […] of substrate solution was added. The readout of the emitted fluorescence was started immediately (45 s for 30 cycles) using a Tecan Infinite F200Pro (Tecan Group Ltd; excitation at 495 nm and emission at 525 nm). Blank controls were performed without enzyme. Positive controls were performed with enzyme but without inhibitor. The inhibitory activity of each test compound was measured in three independent experiments. For calculation of IC50 values, data obtained from measurements with eight different inhibitor concentrations were used. For the evaluation of the sigmoidal dose response equation (variable slope with four parameters) GraphPad Prism 5 (GraphPad Software, La Jolla, Calif., USA) was used.

[2] = molecular target: T2, NDM-1 (Klebsiella pneumoniae, UniProt C7C422); experiment: In vitro inhibition assay (kinetic fluorescence-based activity assay), NDM-1
T2 construct: made in house
Description: as §1, §2

[3] = molecular target: IMP-7 (Pseudomonas aeruginosa, UniProt Q93AU3); experiment: In vitro inhibition assay (kinetic fluorescence-based activity assay), IMP-7
Description: as §1, §2

T2 sequence (C7C422 29-270, looked up, species assumed): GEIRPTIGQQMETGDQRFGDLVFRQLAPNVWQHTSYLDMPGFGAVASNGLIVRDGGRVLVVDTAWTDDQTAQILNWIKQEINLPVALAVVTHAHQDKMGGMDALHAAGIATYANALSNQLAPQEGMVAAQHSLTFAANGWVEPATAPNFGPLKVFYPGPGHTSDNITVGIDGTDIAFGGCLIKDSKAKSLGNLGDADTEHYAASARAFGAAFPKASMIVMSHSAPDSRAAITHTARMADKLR
Chain of IMP-7 (Q93AU3 entry or part of it): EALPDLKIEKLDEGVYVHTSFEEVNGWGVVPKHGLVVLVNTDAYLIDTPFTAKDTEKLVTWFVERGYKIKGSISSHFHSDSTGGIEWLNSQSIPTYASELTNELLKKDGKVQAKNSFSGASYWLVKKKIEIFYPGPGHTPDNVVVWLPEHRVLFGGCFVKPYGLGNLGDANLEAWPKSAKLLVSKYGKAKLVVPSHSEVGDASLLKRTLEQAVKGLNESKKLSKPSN

Row | SMILES | IC50 (μM) VIM-1 [1] | IC50 [2] [µM] | IC50 [3] [µM] | IC50 [1] [µM] | IC50 (μM) IMP-7 [3]
1 | O=C(CCS)Nc1cccc(O)c1 [HIPS1687] |  | 2.7 ± 0.5 | 1.4 ± 0.2 | 0.1 | 
2 | O=C(CCS)Nc1ccc(O)cc1 [HIPS5190] |  | 4 ± 1.1 | 3.4 ± 0.7 | 0.2 | 
3 | COC(=O)c1ccc(NC(=O)CCS)cc1 [HIPS5586] |  | 2.8 ± 0.1 | 1.1 ± 0.7 | 0.1 | 
4 | CS(=O)(=O)Nc1ccccc1NC(=O)CCS [HIPS5654] |  | 7 ± 0.3 |  | 1.9 ± 0.2 | n.i.
5 | O=C(CCS)Nc1ccc(S(=O)(=O)N2CCOCC2)cc1 [HIPS5659] |  | 2.5 ± 0.2 | 7.1 ± 1.4 | 1.7 ± 0.3 | 
6 | O=C(CCS)Nc1ccccc1O [HIPS5661] |  | 2.2 ± 0.4 | 3.3 ± 0.4 | 0.2 | 

Continued by falling IC50 [2], values first:

Row | IC50 (μM) VIM-1 [1] | IC50 [2] [µM] | IC50 [3] [µM] | IC50 [1] [µM] | IC50 (μM) IMP-7 [3] | SMILES
7 |  | 2.2 ± 0.3 | 1.3 | 1.3 |  | CS(=O)(=O)Nc1cccc(NC(=O)CCS)c1 [HIPS5585]
8 |  | 1.5 ± 0.3 | 5.5 ± 0.1 | 0.4 ± 0.1 |  | CC(=O)c1ccc(NC(=O)CCS)cc1 [HIPS5188]
9 | n.i. | 1.3 ± 0.2 | 1 ± 0.1 |  |  | COC(=O)c1ccccc1NC(=O)CCS [HIPS1685]
